# “And” between values parts separate entries of the source, which are not always exact repeats. Equal entries are not always repeated. Where two headings read alike, the source gives them in different places.
# How the values were obtained:
# [1] = Oral PK of K102 at 40 mg/kg in female mice; format: in vivo, C57BL/6 mouse; conditions: female mouse, PO 40 mg/kg, mean
# CYP2C19 [2] = target: T1, CYP2C19 (Homo sapiens, UniProt P33261); experiment: CYP inhibition; conditions: test compounds at 10 μM; substrate Mephenytoin
# [3] = Oral PK of K102 at 40 mg/kg in female monkeys; format: in vivo, cynomolgus monkey; conditions: female monkey, PO 40 mg/kg, mean
# EAE mice optic tract = experiment: Optic tract IHC in EAE; format: in vivo, mouse
# Text: (§1) Animal Perfusions, tissue preparation, and IHC: Mice were deeply anesthetized and euthanized with isoflurane and intracardially perfused with ice‐cold PBS followed by 10% formalin in PBS (Fisher Scientific, Hampton, NH). Eyes, optic nerves, and brain were collected and processed for IHC as previously described[23],[28]. Antibody details are listed in Supplementary Table S6.
# Imaging and Quantification: Retina, optic nerve, and brain sections were imaged using an Olympus BX61 spinning disk confocal microscope with 10× and 40× objectives[23],[28]. Z-stack images were captured and processed using Slidebook 6 and cellSense software. Immunofluorescence intensity and cell counts were quantified using NIH ImageJ, and statistical analysis was performed with GraphPad Prism.
# Treatment with K102 alleviated EAE-induced demyelination relative to vehicle-treated mice.
# as §1, with “Perfusions,” for “Animal Perfusions,”, “anesthetized” for “anesthetized and euthanized”, “described(8, 9).” for “described[23],[28].”
# Imaging and Quantification: Retina, optic nerve, and brain sections were imaged using an Olympus BX61 spinning disk confocal microscope equipped with 10x and 40x Super Apochromat objectives (Olympus America Inc., Cypress, CA) connected to a camera (Hamamatsu Orca‐R2). Z‐stack images were acquired, and projection images were compiled using Slidebook 6 and cellSense software (Intelligent Imaging Innovations Inc, Santa Monica, CA). Immunofluorescence intensity and cell numbers were assessed with NIH ImageJ software (v1. 50i http://rsb.info.nih.gov/ij/) and quantified. Results from all counts were analyzed in GraphPad Prism for statistical significance.
# [4] = Hepatocyte stability (mouse)
# [5] = Pharmacokinetics and brain/plasma distribution in CD1 mice (IV, SC, PO); conditions: CD1 mouse
# Procedure: (§2) Mice were dosed intravenously at 5 mg/kg, subcutaneously at 10 mg/kg, and orally at 25 mg/kg.
# (§3) Only values above the LLOQ.(0.3 ng/mL) were plotted.
# [6] = Oral PK of K102 at 40 mg/kg in female dogs; format: in vivo, beagle dog; conditions: female dog, PO 40 mg/kg, mean
# [7] = mouse, in vivo
# Procedure: as §2, §3
# CYP2C9 = CYP2C9 (Homo sapiens, UniProt P11712); conditions: 10 µM
# CYP2D6 = CYP2D6 (Homo sapiens, UniProt P10635); conditions: 10 µM
# CYP2C19 [8] = target: T1, CYP2C19; conditions: 10 µM
# CYP3A4 = CYP3A4 (Homo sapiens, UniProt P08684); conditions: 10 µM
# CYP3A4, sequence (P08684 whole entry): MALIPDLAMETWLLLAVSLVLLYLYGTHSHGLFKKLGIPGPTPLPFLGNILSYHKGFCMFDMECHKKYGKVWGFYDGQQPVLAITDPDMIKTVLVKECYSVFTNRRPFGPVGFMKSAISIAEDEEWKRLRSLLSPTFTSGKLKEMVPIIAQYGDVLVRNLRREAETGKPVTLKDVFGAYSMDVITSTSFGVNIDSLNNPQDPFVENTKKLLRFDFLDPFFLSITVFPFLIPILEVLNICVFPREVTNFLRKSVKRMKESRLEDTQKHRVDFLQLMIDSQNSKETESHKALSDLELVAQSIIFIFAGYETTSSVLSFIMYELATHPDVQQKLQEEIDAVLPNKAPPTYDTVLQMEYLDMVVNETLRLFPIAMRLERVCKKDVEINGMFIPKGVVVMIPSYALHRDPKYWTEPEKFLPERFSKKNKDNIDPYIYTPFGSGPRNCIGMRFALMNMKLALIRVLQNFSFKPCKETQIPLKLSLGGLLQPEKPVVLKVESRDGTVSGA
# T1 sequence (P33261 whole entry): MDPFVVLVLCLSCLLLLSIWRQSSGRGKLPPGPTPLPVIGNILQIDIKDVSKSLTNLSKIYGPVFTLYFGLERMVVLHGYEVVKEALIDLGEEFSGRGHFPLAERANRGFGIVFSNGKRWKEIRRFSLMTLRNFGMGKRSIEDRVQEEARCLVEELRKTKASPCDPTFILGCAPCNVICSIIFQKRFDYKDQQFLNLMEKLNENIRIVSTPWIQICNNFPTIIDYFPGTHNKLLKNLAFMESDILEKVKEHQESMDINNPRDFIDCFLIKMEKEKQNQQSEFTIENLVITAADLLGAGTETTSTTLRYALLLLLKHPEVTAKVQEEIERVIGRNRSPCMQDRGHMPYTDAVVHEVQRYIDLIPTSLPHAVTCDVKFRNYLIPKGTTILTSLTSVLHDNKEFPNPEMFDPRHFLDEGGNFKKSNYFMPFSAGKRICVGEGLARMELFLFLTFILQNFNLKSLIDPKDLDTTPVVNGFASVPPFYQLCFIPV
# CYP2D6, sequence (P10635 whole entry): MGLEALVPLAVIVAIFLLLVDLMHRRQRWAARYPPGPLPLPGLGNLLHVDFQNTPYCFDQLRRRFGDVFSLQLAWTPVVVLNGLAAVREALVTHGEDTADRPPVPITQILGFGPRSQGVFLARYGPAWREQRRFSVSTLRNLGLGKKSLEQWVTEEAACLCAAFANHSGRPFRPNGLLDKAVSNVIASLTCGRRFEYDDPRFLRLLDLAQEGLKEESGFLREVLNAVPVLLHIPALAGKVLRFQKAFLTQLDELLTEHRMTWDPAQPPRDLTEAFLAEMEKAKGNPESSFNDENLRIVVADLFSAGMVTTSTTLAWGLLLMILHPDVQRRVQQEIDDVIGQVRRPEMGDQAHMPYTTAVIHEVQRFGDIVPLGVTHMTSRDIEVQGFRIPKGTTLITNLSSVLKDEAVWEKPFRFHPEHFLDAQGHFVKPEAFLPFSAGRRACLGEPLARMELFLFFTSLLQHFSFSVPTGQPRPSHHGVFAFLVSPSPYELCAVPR
# CYP2C9, sequence (P11712 whole entry): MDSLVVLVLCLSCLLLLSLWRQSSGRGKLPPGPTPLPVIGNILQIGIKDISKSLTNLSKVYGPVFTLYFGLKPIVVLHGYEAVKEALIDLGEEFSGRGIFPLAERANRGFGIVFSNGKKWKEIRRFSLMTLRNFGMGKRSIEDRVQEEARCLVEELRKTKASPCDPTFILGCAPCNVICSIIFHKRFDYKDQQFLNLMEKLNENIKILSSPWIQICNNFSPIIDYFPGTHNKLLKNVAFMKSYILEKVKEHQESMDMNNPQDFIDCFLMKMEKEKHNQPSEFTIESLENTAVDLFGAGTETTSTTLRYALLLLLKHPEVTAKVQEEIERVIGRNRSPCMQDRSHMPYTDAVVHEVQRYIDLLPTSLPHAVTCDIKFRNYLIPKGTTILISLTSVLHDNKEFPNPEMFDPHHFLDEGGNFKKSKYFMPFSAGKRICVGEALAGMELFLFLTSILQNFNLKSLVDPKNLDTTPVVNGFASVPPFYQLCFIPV
structure (smiles),measurement,setting,value
"Cc1cc(O)ccc1-n1nc2ccc(O)cc2c1Cl [Compound K102, IndCl-o-Me]",AUCExtr,[1],13.0%
same,AUCInf,[1],855 ng·h/mL
same,AUCInf/D,[1],21.4 kg·ng·h/mL/mg
same,AUClast,[1],748 ng·h/mL
same,Cmax,[1],945 ng/mL
same,MRTInf,[1],248 min
same,Tmax,[1],15 min
same,t1/2,[1],256 min
same,CYP Inhibition Percentage CYP2C19,CYP2C19 [2],50.50%
same,AUCInf/D,[3],59.3 kg·ng·h/mL/mg
same,AUClast,[3],2373.0 ng·h/mL
same,Cmax,[3],355.3 ng/mL
same,Tmax,[3],79.8 min
same,"GFAP, mean value",EAE mice optic tract,significantly reduced
same,"Iba1, mean value",EAE mice optic tract,significantly reduced
same,"MBP, mean value",EAE mice optic tract,alleviated
same,"NFM, mean value",EAE mice optic tract,significantly increased
same,"SARM1, mean value",EAE mice optic tract,did not produce a significant change
same,"GFAP, mean value",EAE mice optic tract; listed as 102,14.14
same,"Iba1, mean value",EAE mice optic tract; listed as 102,9.623
same,"MBP, mean value",EAE mice optic tract; listed as 102,27.62
same,"NFM, mean value",EAE mice optic tract; listed as 102,18.64
same,"SARM1, mean value",EAE mice optic tract; listed as 102,11.45
same,Hepatocyte Stability (Mouse) CLint,[4],86.57 µL/min/mg protein
same,Hepatocyte Stability (Mouse) t1/2,"[4]; mouse, hepatocytes",16.01 min
same,Kp AUC0-t (brain/plasma),[5]; IV 5 mg/kg,0.43
same,Kp AUClast (brain/plasma),[5]; IV 5 mg/kg,0.41
same,Ratio of Cmax (brain/plasma),[5]; IV 5 mg/kg,0.54
same,Vss_obs,[5]; IV 5 mg/kg,5.74 L/kg
same,AUC0-t,"[5]; IV 5 mg/kg, brain",211 ng·h/g
same,T1/2,"[5]; IV 5 mg/kg, brain",52.2 min
same,Tmax,"[5]; IV 5 mg/kg, brain",6 min
same,AUC0-t,"[5]; IV 5 mg/kg, plasma",491 ng·h/mL
same,C0 or max,"[5]; IV 5 mg/kg, plasma",3256 ng/mL
same,Cl_obs,"[5]; IV 5 mg/kg, plasma",169 mL/min/kg
same,T1/2,"[5]; IV 5 mg/kg, plasma",55.2 min
same,Kp AUC0-t (brain/plasma),[5]; PO 25 mg/kg,0.40
same,Ratio of Cmax (brain/plasma),[5]; PO 25 mg/kg,0.59
same,AUC0-t,"[5]; PO 25 mg/kg, brain",391 ng·h/g
same,Cmax,"[5]; PO 25 mg/kg, brain",279 ng/g
same,Tmax,"[5]; PO 25 mg/kg, brain",15 min
same,T1/2 (brain retention),"[5]; PO 25 mg/kg, brain, 25 mg/kg",288 min and 287 min
same,AUC0-t,"[5]; PO 25 mg/kg, plasma",991 ng·h/mL
same,Cmax,"[5]; PO 25 mg/kg, plasma",471 ng/mL
same,T1/2,"[5]; PO 25 mg/kg, plasma",611.4 min
same,Tmax,"[5]; PO 25 mg/kg, plasma",4.98 min
same,F (Bioavailability),"[5]; PO 25 mg/kg, plasma, 25 mg/kg",40% and 40.4%
same,AUCinf plasma,[5]; PO 25 mpk,991 ng·h/mL
same,Brain/Plasma Ratio(%),[5]; PO 25 mpk,40%
same,Kp AUC0-t (brain/plasma),[5]; SC 10 mg/kg,0.35
same,Kp AUClast (brain/plasma),[5]; SC 10 mg/kg,0.35
same,Ratio of Cmax (brain/plasma),[5]; SC 10 mg/kg,0.24
same,AUC0-t,"[5]; SC 10 mg/kg, brain",477 ng·h/g
same,Cmax,"[5]; SC 10 mg/kg, brain",218 ng/g
same,Tmax,"[5]; SC 10 mg/kg, brain",30 min
same,T1/2 (brain retention),"[5]; SC 10 mg/kg, brain, 10 mg/kg",120 min
same,T1/2 (brain retention),"[5]; SC 10 mg/kg, brain, listed as IndCl-o-Me, 10 mg/kg",118 min
same,AUC0-t,"[5]; SC 10 mg/kg, plasma",1385 ng·h/mL
same,Cmax,"[5]; SC 10 mg/kg, plasma",919 ng/mL
same,T1/2,"[5]; SC 10 mg/kg, plasma",134 min
same,Tmax,"[5]; SC 10 mg/kg, plasma",4.98 min
same,AUCinf brain,[5]; SC 10 mpk,480 ng·h/g
same,AUCinf plasma,[5]; SC 10 mpk,1390 ng·h/mL
same,Brain/Plasma Ratio(%),[5]; SC 10 mpk,35%
same,AUCInf/D,[6],0.6 kg·ng·h/mL/mg
same,AUClast,[6],24.6 ng·h/mL
same,Cmax,[6],31.7 ng/mL
same,Tmax,[6],15 min
"Oc1ccc(-n2nc3ccc(O)cc3c2Cl)c(O)c1 [Compound K110, IndCl-o-OH]",Cl_obs,"[7]; iv, 5 mg/kg",158 mL/min/kg
same,Kp AUC0-t (brain/plasma),"[7]; iv, 5 mg/kg",0.37
same,Kp AUClast (brain/plasma),"[7]; iv, 5 mg/kg",0.37
same,Vss_obs,"[7]; iv, 5 mg/kg",2.23 L/kg
same,AUCinf brain,"[7]; po, 25 mg/kg",354 ng·h/g
same,AUCinf plasma,"[7]; po, 25 mg/kg",780 ng·h/mL
same,Brain/Plasma Ratio(%),"[7]; po, 25 mg/kg",46%
same,Kp AUC0-t (brain/plasma),"[7]; po, 25 mg/kg",0.46
same,Kp AUClast (brain/plasma),"[7]; po, 25 mg/kg",0.41
same,AUCinf brain,"[7]; sc, 10 mg/kg",303 ng·h/g
same,AUCinf plasma,"[7]; sc, 10 mg/kg",1403 ng·h/mL
same,Brain/Plasma Ratio(%),"[7]; sc, 10 mg/kg",22%
same,F (Bioavailability),"[7]; sc, 10 mg/kg",133%
same,Kp AUC0-t (brain/plasma),"[7]; sc, 10 mg/kg",0.22
same,Kp AUClast (brain/plasma),"[7]; sc, 10 mg/kg",0.20
same,CYP Inhibition Percentage CYP2C9,CYP2C9,18.49%
same,CYP Inhibition Percentage CYP2D6,CYP2D6,5.63%
same,CYP Inhibition Percentage CYP2C19,CYP2C19 [8],27.89%
same,CYP Inhibition Percentage CYP3A4-T,CYP3A4,45.13%

# Reference: PMC12508063, “Chloroindazole based estrogen receptor β ligands with favorable pharmacokinetics promote functional remyelination and visual recovery” (Scientific Reports, 2025)
